Experimental data reported in patent US4855445A, “Substituted-8-alkenyl-1,3,4,9-tetrahydropyrano[3,4-b]indole-1-acetic acids” (American Home Products Corporation, priority 1987, dated 1989).
Where a name gives a salt, the structure may show the parent alone.

Columns and labels:
rats = experiment: Preventative Adjuvant Edema; type: in vivo, Male Sprague Dawley rats; settings: p.o., dosed days 0, 1 and 2, edema volume day 3
Experimental: This test is a primary screen for anti-inflammatory drugs.
Male Sprague Dawley rats (180-200 g) are used. The animals have free access to water but food is withdrawn 18 hours before testing.
Drug Preparations and Adminstration:
Freund's complete adjuvant is prepared by suspending 5 mg of killed and dried Mycobacterium butyricum (Difco) in 1 mL mineral oil. The test compounds are dissolved, or suspended in 0.5% Tween 80 in distilled water according to their solubility. […]
The method is essentially that described by Wax et al, J. Pharmacol. Exp. Ther., 192, 166-171 (1975). Groups of rats are injected intradermally in the left hind paw with 0.1 mL of Freund's complete adjuvant. The test compound or vehicle is administered immediately before the adjuvant, 24 hours and 48 hours after the adjuvant (days 0, 1 and 2). The injected hind paw volume is measured before the injection of adjuvant and 24 hrs. after the last drug administration (day 3) by means of a plethysmometer (Buxco Electronics Inc.). The difference between the hind paw volume on day 0 and day 3 represents the edema volume. […]
The mean edema volume (expressed as mL±SEM) is calculated for each group and the percentage protection conferred by the drug is calculated: [formula] where c is the mean edema volume for the vehicle-treated (0.5% Tween 80 in distilled water) controls and t is the mean edema volume for the drug treated group.

mice = experiment: Drug Effects on Phenylbenzoquinone-induced Writhing in Mice; type: in vivo, Male Swiss albino mice; settings: p.o., PBQ i.p. 60 minutes after dosing, writhes in 15 min
Experimental: A further test used to determine the utility of the compounds of the present invention is designated: Drug Effects on Phenylbenzoquinone-induced Writhing in Mice
The objective of this test is to determine the ability of test drugs to inhibit the nociceptive (pain) response of mice injected with a chemical irritant. This test is a primary screen for both peripheral and centrally acting analgesic drugs.
Male Swiss albino mice (15-25 g). The animals are fasted for 18 hours prior to use but have free access to water.
Drug Preparation and Administration:
Drugs are dissolved or suspended according to their solubility in 0.5% Tween 80 in distilled water. They are administered by gastric gavage in a volume of 5 mL/kg. […]
A modification of the method of Siegmund et al, Proc. Soc. Exp. Biol. Med., 95, 729-731 (1957) is used. Groups of 5 mice are dosed with the test compound or vehicle control. […] The number of writhing or abdominal squirming movements made by each mouse during the following 15 min. period is counted. The experiment is repeated with another group of 5 mice and the mean numbr of writhes per mouse for a group of 10 mice is calculated.
Drug treated and vehicle-treated control groups are compared and the percentage protection conferred by the drug is calculated: [formula] where c=mean number of writhes in the control group where t=mean number of writhes in the test drug group

Row | Structure (SMILES) | Preventative Adjuvant Edema, percent inhibition (rats; 10 mg/kg) [%] | Phenylquinone Writhing in Mice, percent inhibition (mice; 10 mg/kg) [%] | Preventative Adjuvant Edema, percent inhibition (rats; 25 mg/kg) [%] | Phenylquinone Writhing in Mice, percent inhibition (mice; 200 mg/kg) [%]
1 | C/C=C\c1c(F)ccc2c3c([nH]c12)C(CC)(CC(=O)O)OCC3 (stereo not shown) [Example 1, (Z)-1-Ethyl-7-fluoro-1,3,4,9-tetrahydro-8-(1-propenyl)pyrano[3,4-b]indole-1-acetic Acid, 1,2-Ethanediamine Salt] | 69 | 32 |  | 
2 | C/C=C\c1cccc2c3c([nH]c12)C(CC)(CC(=O)O)OCC3 (stereo not shown) [Example 2, (Z)-1-Ethyl-8-(1-propenyl)-1,3,4,9-tetrahydropyrano[3,4-b]indole-1-acetic Acid] |  |  | 73 | 11
